This is an account of results in patent publication EP1604643A1, “Cosmetic use of derivatives of 3-Phenylpropionic acid” (Cognis France, S.A.S., priority 2004, dated 2005).

The nature of data set [1]: Anti free radicals: DPPH° (diphenylpicryl-hydrazyl) test. To be noted: optical density at 513 nm; average of two assays. How it is done:
(§1) The anti-free radical (anti-FR) activity has been evaluated by chemical tests for the evaluation of the potential to scavenge free radicals R° (DPPH° test) and hydroxyl radicals HO°. Furthermore the anti-FR activity has been evaluated by biochemical tests to address the potential for scavenging of a kind of reactive oxygen species (ROS), so called superoxide anions (02°).
The DPPH° scavenging effect of dihydrosinapinic acid has been measured by recording the optical density at 513 nm (DEBY C. Relation entre les acides gras essentiels et le taux des antioxydants tissulaires chez la souris. SOCIETE BELGE DE BIOLOGIE, séance du 19 décembre 1970, pp: 2675-2680). The IC50 (Inhibitory Concentration 50 %: dose for which 50 % of DPPH° is scavenged, average of two assays) of dihydrosinapinic acid is 0.0006 % (w/v).
For orientation: Loss of DPPH colour is used to gauge radical scavenging.

Data set [2] in a line: Anti hydroxyl radicals: HO° test with deoxyribose (Fenton's reaction). To be noted: no EDTA; optical density at 532 nm; average of 2 assays. As to the method: as §1
The hydroxyle radical HO* (formed by H2O2 in presence of Fe++) oxidises deoxyribose, then a pink compound is formed by condensation of thiobarbituric acid with the oxidised form of deoxyribose. The level of oxidised deoxyribose is determined by measurement of the optical density at 532 nm.

The subject of the next data set is Human fibroblasts. Kind of data set: Cytophotoprotection of human fibroblasts against UVA radiation (cell proteins, MDA released). The conditions noted are these: for activity at 0.01 % strength / activity at 0.03 % strength: Homo sapiens, Fibroblast, light or radiation study, % against control, UVA 20 J/cm2; for activity at 0.01 % strength: dose 0.01 % w/v; for activity at 0.03 % strength: dose 0.03 % w/v. The format is cell-based. How it is done:
The cytoprotection against UVA irradiation has been evaluated by a test on human fibroblasts because UVA radiation penetrates through the epidermis until the dermis where it induces oxidative stress, mainly by activation of photosensitising biological components, which catalyse the formation of ROS like anion superoxide, hydrogen peroxide and singlet oxygen, and lipoperoxydation of the cell membrane. These oxidative stress effects are evaluated in vitro due to measuring of the level of released malondialdehyde (MDA) (Morlière P., Moisan A., Santus R., Huppe G., Mazière J.C., Dubertret L. UV-A induced lipid peroxydation in cultured human fibroblasts. Biochim. Biophys. Acta (1991) Vol 1084, pp 261-269). The lipoperoxides formed after UVA irradiation undergo a decay into malondialdehyde which can form cross-links between many biological molecules like proteins with inhibition of enzymes and nucleic bases with risk of mutagenesis.
Human fibroblasts were inoculated with growth medium (DMEM+FCS) and incubated 3 days at 37°C, with 5% CO2. The growth medium was then exchanged by a medium containing the ingredient to be tested and was incubated 2 days at 37°C under an atmosphrere with 5 % of carbon dioxide. After the exchange of the medium bya balanced salt solution, the cell culture was irradiated with UVA radiation (20J/cm^2). Cell proteins were measured, and MDA released in the supernatant was determined spectrophotometrically.

Data set [3] deals with Human leukocytes (Polymorphonuclear neutrophilic granulocytes). Nature of the data set: Anti-inflammatory activity on human leucocytes cultured in vitro (Zymosan-induced respiratory burst, luminol luminescence). The format is cell-based. As to the method: (§2) Human leukocytes (Polymorphonuclear neutrophilic granulocytes) were incubated with dihydrosinapinic acid during 1 day at 37°C under an atmosphere with 5 % carbon dioxide. The respiratory burst was induced by addition of a yeast extract ("Zymosan"). After incubation for 0.5 hours at 37 °C under an atmosphere with 5 % carbon dioxide the cell number was measured using an automatic cell counter and the rate of released reactive oxygen species was recorded by a luminescent reaction with luminol. (Pieper G.M., Gross G.J. EMD 52692 (bimakalim) a new potassium channel opener, attenuates luminol-enhanced chemiluminescence and superoxide anion radical formation by Zymosan-activated polymorphonuclear leukocytes (Immunopharmacology (1992) vol 23, pp 191-197). Table 3

Assay in data set [4]: as above
To be noted: human, leukocytes, % against control, average of 2-3 assays, each carried out 3 times, read-out: Cell number. It counts as cell-based. As to the method:
as §2

A further data set deals with Lipoxygenase. Nature of the data set: Inhibition test on lipoxygenase (released superoxide anions, luminol luminescent probes). The format is biochemical. To be noted: rate of released superoxide anions; mean of 2 assays. How it is done:
The anti-free radical (anti-FR) activity has been evaluated by chemical tests for the evaluation of the potential to scavenge free radicals R° (DPPH° test) and hydroxyl radicals HO°. Furthermore the anti-FR activity has been evaluated by biochemical tests to address the potential for scavenging of a kind of reactive oxygen species (ROS), so called superoxide anions (02°). […] Lipoxygenase was incubated with a specific substrate (unsaturated fatty acid) and the ingredient to be tested. Then the rate of released superoxide anions was evaluated by Luminol luminescent probes. The IC50 (mean of 2 assays) of dihydrosinapinic acid was 0.0002 % (w/v).

Where [5] appears, read: average of 2 assays, each carried out three times, read-out: Cell proteins.
[6] abbreviates: irradiated control = 100, read-out: MDA released.

Like-named read-outs stand apart in the source and are kept apart here.

Turning to `COc1cc(CCC(=O)O)cc(OC)c1O` [Dihydrosinapinic acid, 3-(4-hydroxy-3,5-dimethoxyphenyl) propionic acid], in data set [1], the “IC50 (dose for which 50 % of DPPH° is scavenged)” value is 0.0006 % (w/v). Further, the “IC50 (HO° test with deoxyribose)” value in data set [2] is listed as 0.025 % (w/v). Also, the results for the activity at 0.01 % strength in the data set with Human fibroblasts (setting [5]) and with Human fibroblasts (setting [6]) were 121% and 47%, respectively. Moreover, the activity at 0.03 % strength stood at 140% with Human fibroblasts (setting [5]) and 12% in the data set on Human fibroblasts (setting [6]). The “protection of the cells against UVA-induced MDA released” value in the data set with Human fibroblasts (result in words, after incubation of the fibroblasts) is on record as “strong protection”. Further, in data set [3] (Homo sapiens, Leukocyte, % against control, dose 0.0001 % w/v, Zymosan-activated, read-out: Released ROS), the activity at 0.0001 % strength amounted to 25%. Also, the activity at 0.0003 % strength in data set [3] (Homo sapiens, Leukocyte, % against control, dose 0.0003 % w/v, Zymosan-activated, read-out: Released ROS) turned out to be 13%. In data set [3] (result in words, Zymosan-activated polymorphonuclear neutrophilic granulocytes), the “respiratory burst (release of reactive oxygen species)” value is “inhibited”. Further, the viability turned out to be 99% in data set [4] (dose 0.0001 % w/v) and 98% in data set [4] (dose 0.0003 % w/v). On Lipoxygenase, the “IC50 (lipoxygenase inhibition)” value is reported as 0.0002 % (w/v).
